Data published in patent US8217155B2 (Gilead Colorado, Inc., priority 2007, dated 2012).
Where two headings read alike, the source gives them in different places. One block for each compound: values may come before it.

Experiments:
[1] = molecular target: T1, human ETB receptors expressed in CHO cells (Homo sapiens, UniProt P24530); test: In vitro ETB receptor binding, [125I]-labeled ET-3 displacement; details: incubation time 30 minutes, not steady-state; read-out: Ki ± SE, ETB
T1 construct: expressed in transfected cells; host or cells: CHO cells (membranes)
T1 sequence (P24530 27-442): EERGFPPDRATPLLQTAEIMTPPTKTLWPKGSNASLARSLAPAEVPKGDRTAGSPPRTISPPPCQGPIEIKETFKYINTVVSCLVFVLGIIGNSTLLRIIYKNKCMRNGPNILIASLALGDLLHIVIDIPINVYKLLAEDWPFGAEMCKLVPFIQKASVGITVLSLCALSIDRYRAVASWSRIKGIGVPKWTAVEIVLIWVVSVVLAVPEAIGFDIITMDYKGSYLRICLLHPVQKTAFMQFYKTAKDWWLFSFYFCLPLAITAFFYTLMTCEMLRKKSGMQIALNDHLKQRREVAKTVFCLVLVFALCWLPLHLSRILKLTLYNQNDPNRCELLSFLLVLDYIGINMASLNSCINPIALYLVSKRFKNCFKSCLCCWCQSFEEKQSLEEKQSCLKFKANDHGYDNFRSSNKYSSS
Method: (§1) The test compounds are dissolved at 10^−2M in methanol: Cremophor EL® 100:1 and diluted in deionized water to concentrations of […] to 10^−6 M. Binding reactions are initiated by addition of [^125I]-labeled ET-1 or [^125I]-labeled ET-3 for the ETA and ETB receptors, respectively, after 2 minutes preincubation of the membranes in the presence of Metabolite B or Metabolite C. The specific radioligand binding to each receptor is calculated as the difference between total binding and non-specific binding, determined in the presence of an excess of unlabeled ET-1. IC; values are determined by nonlinear curve fitting from experiments performed with 3 concentrations of test compound.

[2] = molecular target: T2, human ETA receptors expressed in CHO cells (Homo sapiens, UniProt P25101); test: In vitro ETA receptor binding, [125I]-labeled ET-1 displacement; details: incubation time 30 minutes; for affinity for the ETA receptor relative to that for the ETB receptor: CHO cells; for Ki: not steady-state, read-out: Ki ± SE, ETA
T2 construct: expressed in transfected cells; host or cells: CHO cells (membranes)
T2 sequence (P25101 21-427): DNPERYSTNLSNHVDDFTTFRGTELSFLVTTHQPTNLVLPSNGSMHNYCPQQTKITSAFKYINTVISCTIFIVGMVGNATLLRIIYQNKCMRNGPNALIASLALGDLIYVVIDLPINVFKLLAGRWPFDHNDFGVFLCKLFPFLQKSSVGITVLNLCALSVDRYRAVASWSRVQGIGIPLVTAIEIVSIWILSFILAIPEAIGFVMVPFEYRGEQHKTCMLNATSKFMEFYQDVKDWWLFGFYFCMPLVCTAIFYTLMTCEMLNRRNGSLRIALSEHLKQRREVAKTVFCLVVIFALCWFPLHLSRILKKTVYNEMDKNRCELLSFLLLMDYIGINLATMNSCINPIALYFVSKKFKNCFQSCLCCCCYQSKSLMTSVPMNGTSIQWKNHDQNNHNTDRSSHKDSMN
Method: as §1

[3] = In vivo excretion in dogs; details: dog, after single 3 mg/kg oral dose of ambrisentan
[4] = In vitro metabolism in human hepatocytes; type: in vitro ADME; details: 24-hour period
ETA receptor = molecular target: T3, ETA receptor (Homo sapiens, UniProt P25101); details: human ventricular tissue; cited from earlier work
T3 construct: Studies performed in human ventricular tissue with ambrisentan; from tissue; host or cells: human ventricular tissue
T3 sequence (P25101 21-427): T2 sequence (P25101 21-427)

CYP isoenzymes = test: Reaction phenotyping with microsomes expressing single CYP isoenzymes; type: in vitro ADME
Text: (§2) Reaction phenotyping using microsomes expressing single CYP isoenzymes or uridine diphosphate glucuronosyl transferase (UGT) isoenzymes are used to identity those enzymes that are sufficient to metabolize ambrisentan in vitro.

[5] = Isolated perfused rat liver model; type: in vitro ADME, male Wistar rats; details: for cumulative excretion of total radioactivity in the bile: six hours; for decrease of total radioactivity in the perfusate: six hours post-dose
Method: The metabolic pathways of ambrisentan in male Wistar rats are investigated using the isolated perfused rat liver model. […] The livers are removed from 2 animals in each dose group and perfused in a recirculating system for 6 hours and the metabolite pattern of the perfusion medium and bile determined.

[6] = Biliary excretion in dogs; details: 10 mg/kg intraduodenal, eight hours post-administration
[7] = In vivo excretion in rats; details: ADME studies
[8] = In vitro metabolism in rat hepatocytes; type: in vitro ADME; details: 24-hour period
[9] = tested on: uridine diphosphate glucuronosyl transferase (UGT) isoenzymes; test: Reaction phenotyping with microsomes expressing single UGT isoenzymes; type: in vitro ADME
Text: as §2

[10] = In vitro metabolism in dog hepatocytes; details: 24-hour period
[11] = cited from earlier work
[12] = Biliary excretion and enterohepatic circulation in rats; type: in vivo, male rats
Method: Bile and urine are collected over a 24-hour period. […] To assess enterohepatic circulation, a second set of rats (acceptor rats) is intraduodenally dosed with pooled bile (0-12 hour period) from the first set of rats (donor rats), and bile and urine are again collected over a 24-hour period. […] The metabolite patterns in bile from donor and acceptor rats are similar.

[13] = In vitro metabolism in liver microsomes (phase I); type: in vitro ADME; details: rat, dog, and human liver microsomes
[14] = both, dog, in vivo, 10 mg/kg
[15] = dog, in vivo, po, 3 mg/kg
[16] = dog, human, 24 h
[17] = donor rats, intraduodenal, within 24 hours

Compound: COC(c1ccccc1)(c1ccccc1)[C@H](Oc1nc(C)cc(C)n1)C(=O)O[C@@H]1O[C@H](C(=O)O)[C@@H](O)[C@H](O)[C@H]1O [Metabolite A, (2S,3S,4S,5R,6S)-6-((S)-2-(4,6-Dimethylpyrimidin-2-yloxy)-3-methoxy-3,3-diphenylpropanoyloxy)-3,4,5-trihydroxytetrahydro-2H-pyran-2-carboxylic acid]
- share of the total radioactivity in bile [14]: 77-81%
- metabolite pattern in excreta [15]: main metabolite in feces

Compound: COC(c1ccccc1)(c1ccccc1)[C@H](Oc1nc(C)cc(CO)n1)C(=O)O [Metabolite B, (S)-2-(4-(Hydroxymethyl)-6-methylpyrimidin-2-yloxy)-3-methoxy-3,3-diphenylpropanoic acid]
- Ki [1]: 4100 ± 322 nM
- affinity for the ETA receptor relative to that for the ETB receptor [2]: about 100 times
- Ki [2]: 40.3 ± 6.1 nM
- amount of hydroxylated metabolite detected [16]: < 1%

Continued, in another order:

- Ki [1]: 556 ± 43.6 nM
- affinity for the ETA receptor relative to that for the ETB receptor [2]: about 100 times
- Ki [2]: 22.2 ± 4.2 nM
Compound: Cc1cc(C)nc(OC(C(=O)O)C(O)(c2ccccc2)c2ccccc2)n1 (racemic) [Metabolite C]

- metabolite pattern in excreta [3]: main metabolite in urine
Compound: Cc1cc(C)nc(O)n1 [4,6-dimethyl-2hydroxypyrimidine, 4,6-dimethyl-2-hydroxypyrimidine]

- radiolabeled ambrisentan metabolized by phase II pathway [4]: 21%
- CYP isoenzymes that oxidatively metabolize the compound (CYP isoenzymes): CYP3A4, CYP2C19, and CYP3A5
- cumulative excretion of total radioactivity in the bile ([5]; 3 mg/kg dose): 25%
- decrease of total radioactivity in the perfusate ([5]; 3 mg/kg dose): 55%
- cumulative excretion of total radioactivity in the bile ([5]; 10 mg/kg dose): 30%
- decrease of total radioactivity in the perfusate ([5]; 10 mg/kg dose): 55%
- cumulative excretion of total radioactivity in the bile ([5]; 30 mg/kg dose): 31%
- decrease of total radioactivity in the perfusate ([5]; 30 mg/kg dose): 45%
- total radioactivity excreted into the bile ([6]; female dogs): 47%
- total radioactivity excreted into the bile ([6]; male dogs): 54%
- share of parent compound among metabolic species in feces [7]: ca. 80%
- Ki [2]: 0.63 ± 0.2 nM
- metabolized by phase II pathway [8]: 15%
- UGT isoenzymes that glucuronidate the compound [9]: UGT1A9S, UGT2B7S, and UGT1A3S
- radiolabeled ambrisentan metabolized by phase II pathway [10]: 25%
- total radioactivity recovered in the bile of acceptor rats ([12]; acceptor rats dosed intraduodenally with pooled donor bile, 24-hour period): 76.5-94%
- total radioactivity recovered from the bile [12, 17]: 94.8%
- total radioactivity recovered from the urine [12, 17]: 1.5%
- share of parent compound among metabolic species in bile ([12]; rats, biliary excretion study): 95%
- turnover of parent compound to hydroxylated metabolite (Metabolite B) [13]: 3-4%
Compound: COC(c1ccccc1)(c1ccccc1)[C@H](Oc1nc(C)cc(C)n1)C(=O)O [Ambrisentan, (S)-2-[(4,6-dimethylpyrimidin-2-yl)oxy]-3-methoxy-3,3-diphenylpropionic acid]
- affinity for the ETA receptor (ETA receptor): high affinity (low Ki)
- mean 6MWD, mean increase from baseline ([11]; all patients, after 12 weeks of treatment): 36 meters
- primary efficacy endpoint (exercise capacity measured by 6MWD) ([11]; phase II trials, all four dose groups): statistically significant and clinically meaningful increase
